Measurements as given in patent publication US10376486B2, “Compositions and methods for reactivating latent viral infections” (priority 2014, dated 2019).

Key:
[1] = tested on: latent HIV in J-Lat A1 cells; assay: HIV latency reactivation in J-Lat A1 cells (GFP expression by flow cytometry); type: cell-based
Procedure: FIG. 1: PEP005 induces reactivation of HIV latency in vitro. J-Lat A1 cells were exposed to different concentrations of PEP005 and virus reactivation was measured by GFP expression using flow cytometry. Cell viability was determined by Live/Dead dye staining. (A) Chemical Structure of PEP005. […] (D) PEP005 potently reactivates latent HIV in cell lines compared with other LRAs. J-Lat A1 cells were treated with 10 nM PEP005, 500 nM SAHA, 2 μM JQ1, 2 μM GSK343, 10 ng/ml TNF, 2 μM Prostratin, or 5 ng/ml PMA for 24 hours and the percentage of GFP expression was evaluated using flow cytometry. *, p<0.05; **, p<0.01.
FIG. 2: PEP005 synergizes with other latency reversing agents in reactivating latent HIV. (A) J-Lat A1 cells were treated with 5 ng/ml PMA, 6 nM PEP005, 500 nM SAHA, 2 μM JQ1, 2 μM GSK343, or 10 μM Prostratin alone or in combination with 6 nM PEP005 for 24 hours and the percentage of GFP expressing cells was determined using flow cytometry. **, p<0.01; *, p<0.05 compared with control treatment; **, p<0.01; *, p<0.05 compared with PEP005 treatment alone. (B) The U1 cells were treated with 5 ng/ml PMA, 6 nM PEP005, 500 nM SAHA, 2 μM JQ1, or 2 μM GSK343, alone or in combination with 6 nM PEP005 for 24 hours and the HIV transcription was evaluated using RT-qPCR. Numbers indicate fold-increase over the control. **, p<0.01; *, p<0.05 compared with control treatment; **, p<0.01; *, p<0.05 compared with PEP005 treatment alone. […] The Bliss independence model was utilized for calculation of synergy for LRA combinations. Dotted horizontal line signifies pure additive effect (Δfaxy=0). Synergy is defined as Δfaxy>0 while Δfaxy<0 indicates antagonism. Statistical significance was determined using a one tailed ratio t-test comparing predicted and observed drug combination effects. *p<0.05; **p<0.01.
J-Lat A1 cells (harboring a single copy of latent HIV LTR and one copy of green fluorescent protein gene under the HIV LTR control) or U1 cells (harboring two latent HIV genomes with defective Tat gene) were cultured in RPMI1640 medium with 10% fetal bovine serum (FBS) and 1% Pen/strep in a 37° C. incubator containing 5% CO2 [24,31]. Both of the cell lines were obtained from NIH AIDS Reagent Program. For reactivation of HIV LTR, cells were treated with PMA (Sigma), JQ1 (Biovision), Prostatin (Sigma), SAHA (Santa Cruz), TNF-α (BD), GSK343 (Sigma), or PEP005 (Tocris Bioscience) for 24 h. HIV reactivation was quantified by GFP expression using flow cytometry and the data were analyzed using FlowJo Software for J-Lat A1 cells, or by quantitative RT-PCR (RT-qPCR) for J-Lat A1 and U1 cells. Cell viability was evaluated using Live/Dead dye (Life Technologies) by flow cytometry. So far, there is not a single in vitro cell culture model available that captures all the features of HIV latency. However, PKC agonists seem to reactivate latent HIV in all the cell culture models of viral latency. Similar to other J-Lat cell lines, the J-Lat A1 clone has been widely used by researchers for HIV latency studies. The T-cell-derived J-Lat A1 cells harbor one copy of a construct containing a Tat and a green fluorescent protein (GFP) gene framed by the 5′ and 3′ HIV LTR [32]. The J-Lat A1 cells also contain the TAR loop located within the R region of HIV LTR (nt +1 to +60), which provides an opportunity for Tat-TAR interactions for the modulation of transcription and transcriptional elongation. […]

[2] = tested on: PKCδ/θ-IκBα/ε-NF-κB signaling; assay: Western blot of PKC isoforms, IκB isoforms and NF-κB/p65; type: cell-based; settings: J-Lat A1 cells
Procedure: Western blot analysis was performed to detect the expression of PKC isoforms, IκB isoforms, as well as expression of NF-κB/p65.
Whole cell protein extracts were prepared with RIPA buffer containing proteinase inhibitors and phosphatase inhibitors (Sigma). Expression of the isoforms of PKC protein or NF-κB/p65 was evaluated using the PKC Isoform Sampler Antibody Kit (Cell Signaling, 9960S) or anti-NF-κB/p65 (Abcam). The level of phosphorylation of PKC was determined using anti-Phospho-Ser664-PKCδ, anti-Phospho-Ser643/676 PKCδ or anti-Phospho-T538-PKCθ (Millipore), and the level of phosphorylation of IκB was determined using p-IκBα(Ser32), p-IκBβ (Thr19/Ser23) or p-IκBε(Ser18/22) antibodies (Millipore).

[3] = tested on: HIV-1 IIIB; assay: HIV-1 infection of primary CD4+ T cells pre-treated with PEP005 (RT-qPCR, p24 ELISA); type: cell-based; settings: pre-treatment with 12 or 24 nM PEP005; 3 and 5 days after HIV infection
Procedure: FIG. 12: PEP005 down-modulates the expression of CD4, CCR5 and CXCR4 and inhibits HIV infection of primary CD4+ T cells ex vivo. (A) PEP005 inhibits expression of HIV receptors/co-receptors. […] The expression of CD4, CCR5 and CXCR4 genes was evaluated using RT-qPCR after normalizing for GAPDH. (B) and (C) PEP005 inhibits HIV infection of primary CD4+ T cells ex vivo. Primary CD4+ T cells were pre-treated with 12 or 24 nM PEP005 overnight and infected with the virus. The CD4+ T cells were incubated for 5 days without PEP005. The cells were collected for RT-qPCR targeting the HIV LTR region (B), or supernatants were collected for p24 ELISA (C). *, p<0.05; **, p<0.01.
Primary CD4+ T cells were isolated from peripheral blood samples of healthy HIV-negative donors and were pre-treated with PEP005 overnight. The CD4+ T cells were infected with HIV-1 (HIV-1 IIIB expanded in Jurkat T cells, 100 ng p24-gag) through spinoculation as described previously. Following an exposure of 24 hrs to HIV, the cells were washed. Cell supernatants were collected and HIV p24 levels were measured by ELISA. The cells were also collected for RNA extraction and measurement of viral transcripts by RT-qPCR.

[4] = systemic (intravenous), mini pig and rat model; cited from earlier work

Structure (SMILES): C/C=C(/C)C(=O)O[C@H]1C(C)=C[C@]23C(=O)[C@@H](C=C(CO)[C@@H](O)[C@]12O)[C@H]1[C@@H](C[C@H]3C)C1(C)C [PEP005, (1aR,2S,5R,5aS,6S,8aS,9R,10aR)-5,5a-Dihydroxy-4-(hydroxymethyl)-1,1,7,9-tetramethyl-11-oxo-1a,2,5,5a,6,9,10,10a-octahydro-1H-2,8a-methanocyclopenta[a]cyclpropa[e][10]annulen-6-yl (2Z)-2-methylbut-2-enoate]
- concentration at which effect on HIV expression was evident [1]: 2 nM
- HIV reactivation compared to other compounds known to reactivate HIV ([1]; 10 nM PEP005 vs 500 nM SAHA, 2 μM JQ1, 2 μM GSK343, 2 μM Prostratin, 5 ng/ml PMA, 24 h): more potent than SAHA
- increase in the reactivation of HIV latency compared to untreated controls ([1]; 20 nM PEP005): 7 fold
- induction of HIV expression, agent alone ([1]; GFP, 24 h, PEP005 2-40 nM, GSK343 2 μM): dose-dependent manner
- expression of NF-κB/p65 ([2]; 12 nM PEP005): did not change
- phosphorylation of IκB isoforms ([2]; 12 nM PEP005): induced phosphorylation of IκBα and IκBε, but not of IκBβ
- expression of PKC proteins ([2]; 12 nM PEP005, 1 hr): modest up-regulation of PKCδ
- phosphorylation of Ser643/Ser676 in PKCδ/θ ([2]; 12 nM PEP005, as early as 30 minutes post treatment): greater than a two-fold increase
- HIV gene expression after HIV infection (RT-qPCR, HIV LTR region) [3]: dampened HIV gene expression
- viral replication after HIV infection (p24 ELISA) [3]: decreased the level of viral replication
- maximum nonlethal dose [4]: > 0.073 mg/kg
